The values that follow are results of earlier work, collected in US12329899B2, “Dry powder inhaler and methods of use” (Aspeya US Inc., priority 2012, dated 2025).

Molecules are shown by their SMILES.

For data set [1] the following is noted: oral solution of 650 mg, four male subjects.
For data set [2] the following is noted: oral administration, 325 mg.
For data set [3], the system named is platelet. As to conditions: 50 mg/day, some patients; the remainder needed over 50 mg/day.
For data set [4] the following is noted: any dose above 30 mg daily.
The conditions of data set [5]: 75 mg/day.

Consider `CC(=O)Oc1ccccc1C(=O)O` [aspirin, acetylsalicylic acid], for which, in data set [1], the “dose that reached the peripheral circulation intact (AUC oral vs intravenous)” value is recorded as 68%. Besides, the “loss or inactivation of the oral dosage due to the first pass effect in the gut and liver” value (oral administration) is reported as “approximately ⅔”. The “fraction of the dose bioavailable due to the first pass effect” value (taken orally) was “about one to two-thirds”. For the same compound, the “increase of major gastrointestinal and extracranial bleeds” value in data set [2] is on record as “over 50%”. Besides, the platelet inhibition result in data set [3] is given as “satisfactory platelet inhibition”. In addition, the vascular events prevented in data set [4] is on record as 13%. In addition, the “gastrointestinal side-effects, bleeding episodes” value in data set [5] is on record as “significant excess of bleeding episodes”. For the same compound, in data set [5] (patients with cerebrovascular ischaemic events), the “risk of stroke or death” value is “significantly reduces the risk of stroke or death”.
